System: Col-0 plants
Test: growth of wild type plants in the presence of 2,3 butanediol
Assay type: in vivo, Arabidopsis thaliana
Excerpt: Top left: phenotypes of Col-0 (wild type; Arabidopsis thaliana) and genetically modified plants expressing the transgenic PROTON (H+-) pyrophosphatase in all tissues (AVP1) or in phloem cells only (pCoY), where average yields are AVP1>pCoY>Col-0 (FIG. 7). Left center: differential root acidification capacity of each genotype. Left bottom: 16S rRNA based composition of the root associated microbiomes (RAMs) through principal component analyses. Middle: Metabolomic profile of root exudates of the three plant genotypes, depicted as a heat map of relative concentration (each column a pools n>3 plants). Top right: Enrichment of proportional abundance of query and control pathways in the metagenome of rhizosphere RAMs. Middle right: Effect of exposure to 250 μM 2,3-butanediol on root development of Col-0 plants. Bottom right: mechanistic model for plant-microbe interactions at the base of phenotype enhancement and transferability.
To determine how the plant genotype can be made extensive to the RAM, we made use of a second mutant plant (pCoYMV::AVP1; pCoY hereafter), which overexpresses the H+-PPase in companion cells and sieve elements of the plant's phloem (22). […] We then assessed a second potential driver: root exudates. We determined the root exudate profiles, or exometabolome (23), of the three genotypes when grown under sterility on agar-solidified medium. […]

CC(O)C(C)O (centres unmarked) [2,3 butanediol, 2,3-butanediol]
phenotype in root development of wild type plants (wild type (Col-0) plants exposed to 250 μM 2,3-butanediol (FIG. 3)): AVP1-like, high yield phenotypes
phenotype in shoots of wild type plants (wild type (Col-0) plants grown in the presence of 2,3 butanediol, 250 μM per FIG. 3 legend): AVP1-like, high yield phenotypes

— patent publication US20250270576A1, “AGRICULTURAL COMPOSITIONS AND METHODS OF USING THE SAME” (Arizona Board of Regents on behalf of Arizona State …, priority 2021, published 2025)
